From patent US11492405B2, “Reducing systemic regulatory t cell levels or activity for treatment of disease and injury of the CNS” (Yeda Research and Development Co. Ltd, priority 2014, dated 2022)

How the values were obtained:
5XFAD AD-Tg mice [1] = assay: Flow cytometry of CP IFN-γ-expressing immune cells in 5XFAD AD-Tg mice; type: in vivo, mouse; details: weekly-GA, end of 1st week (two GA injections)
Protocol: Mice were transcardially perfused with PBS, and tissues were treated as previously described (Baruch et al, 2013). Brains were dissected and the different brain regions were removed under a dissecting microscope (Stemi DV4; Zeiss) in PBS, and tissues were dissociated using the gentleMACS™ dissociator (Miltenyi Biotec). Choroid plexus tissues were isolated from the lateral, third and fourth ventricles of the brain, incubated at 37° C. for 45 min in PBS (with Ca^2+/Mg^2+) containing 400 U/ml collagenase type IV (Worthington Biochemical Corporation), and then manually homogenized by pipetting. Spleens were mashed with the plunger of a syringe and treated with ACK (ammonium chloride potassium) lysing buffer to remove erythrocytes. In all cases, samples were stained according to the manufacturers' protocols. All samples were filtered through a 70 μm nylon mesh, and blocked with anti-Fc CD16/32 (1:100; BD Biosciences). For intracellular staining of IFN-γ, the cells were incubated with […] (10 ng/ml; Sigma-Aldrich) and ionomycin (250 ng/ml; Sigma-Aldrich) for 6 h, and Brefeldin-A (10 μg/ml; Sigma-Aldrich) was added for the last 4 h. Intracellular labeling of cytokines was done with BD Cytofix/Cytoperm™ Plus fixation/permeabilization kit (cat. no. 555028). […] Cells were analyzed on an LSRII cytometer (BD Biosciences) using FlowJo software. […]

5XFAD AD-Tg mice [2] = assay: Radial arm water maze (RAWM) in 5XFAD AD-Tg mice; type: in vivo, mouse; details: weekly-GA over 4 weeks
Protocol: The radial-arm water maze (RAWM) was used to test spatial learning and memory, as was previously described in detail (Alamed et al, 2006). Briefly, six stainless steel inserts were placed in the tank, forming six swim arms radiating from an open central area. The escape platform was located at the end of one arm (the goal arm), 1.5 cm below the water surface, in a pool 1.1 m in diameter. The water temperature was kept between 21-22° C. Water was made opaque with milk powder. Within the testing room, only distal visual shape and object cues were available to the mice to aid in location of the submerged platform. The goal arm location remained constant for a given mouse. On day 1, mice were trained for 15 trials (spaced over 3 h), with trials alternating between a visible and hidden platform, and the last 4 trails with hidden platform only. On day 2, mice were trained for 15 trials with the hidden platform. Entry into an incorrect arm, or failure to select an arm within 15 sec, was scored as an error. Spatial learning and memory were measured by counting the number of arm entry errors or the escape latency of the mice on each trial. Training data were analyzed as the mean errors or escape latency, for training blocks of three consecutive trials.

[3] = tested on: APP/PS1 mouse model of AD; details: weekly administration regimen; cited from earlier work

## Glatiramer acetate [GA]
5XFAD AD-Tg mice [1]
  IFN-γ-producing cells at the CP: increase
5XFAD AD-Tg mice [2]; 5XFAD AD-Tg mice
  time the improved cognitive performance lasted after the treatment: up to 2 months
5XFAD AD-Tg mice [2]; MWM 1 week, RAWM 1 and 2 months after last injection
  cognitive performance (MWM, RAWM): improved cognitive performance
[3]
  effect in the APP/PS1 mouse model of AD: therapeutic effect
